Activity calls are given as the source filed them.
Key:
[1] = biological target: T1, Serine/threonine-protein kinase 3 (Homo sapiens, UniProt Q13188)
T1 sequence (Q13188 whole entry): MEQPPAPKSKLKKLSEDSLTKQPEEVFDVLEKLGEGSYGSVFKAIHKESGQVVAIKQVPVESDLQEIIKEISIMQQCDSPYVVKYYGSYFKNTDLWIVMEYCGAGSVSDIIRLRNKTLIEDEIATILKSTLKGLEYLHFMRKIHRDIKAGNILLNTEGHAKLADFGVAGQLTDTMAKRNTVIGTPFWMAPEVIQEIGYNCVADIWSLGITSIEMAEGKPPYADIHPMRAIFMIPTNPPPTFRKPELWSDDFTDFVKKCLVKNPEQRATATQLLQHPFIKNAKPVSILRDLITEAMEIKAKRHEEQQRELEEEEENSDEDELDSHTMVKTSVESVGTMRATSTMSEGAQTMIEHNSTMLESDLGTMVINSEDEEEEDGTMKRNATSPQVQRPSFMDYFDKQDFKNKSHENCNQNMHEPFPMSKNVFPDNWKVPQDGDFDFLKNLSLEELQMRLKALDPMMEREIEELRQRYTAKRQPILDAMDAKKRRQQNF

[2] = biological target: Activin receptor type-2B (Homo sapiens, UniProt Q13705)
Sequence of Activin receptor type-2B (Q13705 whole entry): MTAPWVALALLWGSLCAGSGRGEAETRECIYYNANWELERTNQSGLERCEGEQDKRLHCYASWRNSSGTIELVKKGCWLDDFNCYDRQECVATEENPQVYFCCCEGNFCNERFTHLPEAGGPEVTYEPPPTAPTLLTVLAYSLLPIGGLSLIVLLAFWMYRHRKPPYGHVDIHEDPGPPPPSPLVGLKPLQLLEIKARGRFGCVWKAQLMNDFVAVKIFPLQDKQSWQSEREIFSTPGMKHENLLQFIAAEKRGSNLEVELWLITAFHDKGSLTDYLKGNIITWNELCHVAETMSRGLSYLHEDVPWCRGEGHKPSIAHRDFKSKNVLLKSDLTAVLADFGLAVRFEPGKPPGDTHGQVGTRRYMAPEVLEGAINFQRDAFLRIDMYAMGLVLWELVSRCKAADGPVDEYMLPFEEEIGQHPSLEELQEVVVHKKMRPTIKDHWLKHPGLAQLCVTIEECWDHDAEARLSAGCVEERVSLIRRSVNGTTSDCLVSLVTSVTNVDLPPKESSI

[3] = biological target: NADH dehydrogenase [ubiquinone] 1 alpha subcomplex subunit 13 (Homo sapiens, UniProt Q9P0J0)
Sequence of NADH dehydrogenase [ubiquinone] 1 alpha subcomplex subunit 13 (Q9P0J0 whole entry, one chain of several): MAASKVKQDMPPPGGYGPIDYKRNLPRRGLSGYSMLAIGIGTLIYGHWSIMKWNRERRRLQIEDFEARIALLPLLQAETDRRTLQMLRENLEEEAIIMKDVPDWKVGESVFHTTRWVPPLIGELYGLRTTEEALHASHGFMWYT

[4] = biological target: Serine/threonine-protein kinase 26 (Homo sapiens, UniProt Q9P289)
Sequence of Serine/threonine-protein kinase 26 (Q9P289 whole entry): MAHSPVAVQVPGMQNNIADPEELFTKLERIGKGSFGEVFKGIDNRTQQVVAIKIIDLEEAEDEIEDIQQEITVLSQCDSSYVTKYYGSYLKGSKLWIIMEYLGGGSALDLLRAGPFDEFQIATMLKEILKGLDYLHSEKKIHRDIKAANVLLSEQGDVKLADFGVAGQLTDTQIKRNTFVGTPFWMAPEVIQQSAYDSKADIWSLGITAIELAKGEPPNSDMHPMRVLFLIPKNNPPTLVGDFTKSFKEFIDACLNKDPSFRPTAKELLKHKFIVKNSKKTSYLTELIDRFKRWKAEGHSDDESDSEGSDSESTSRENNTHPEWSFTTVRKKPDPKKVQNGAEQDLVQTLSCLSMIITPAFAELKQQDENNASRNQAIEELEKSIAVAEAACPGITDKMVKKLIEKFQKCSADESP

[5] = biological target: Tyrosine-protein kinase ABL1 (Homo sapiens, UniProt P00519)
Sequence of Tyrosine-protein kinase ABL1 (P00519 whole entry): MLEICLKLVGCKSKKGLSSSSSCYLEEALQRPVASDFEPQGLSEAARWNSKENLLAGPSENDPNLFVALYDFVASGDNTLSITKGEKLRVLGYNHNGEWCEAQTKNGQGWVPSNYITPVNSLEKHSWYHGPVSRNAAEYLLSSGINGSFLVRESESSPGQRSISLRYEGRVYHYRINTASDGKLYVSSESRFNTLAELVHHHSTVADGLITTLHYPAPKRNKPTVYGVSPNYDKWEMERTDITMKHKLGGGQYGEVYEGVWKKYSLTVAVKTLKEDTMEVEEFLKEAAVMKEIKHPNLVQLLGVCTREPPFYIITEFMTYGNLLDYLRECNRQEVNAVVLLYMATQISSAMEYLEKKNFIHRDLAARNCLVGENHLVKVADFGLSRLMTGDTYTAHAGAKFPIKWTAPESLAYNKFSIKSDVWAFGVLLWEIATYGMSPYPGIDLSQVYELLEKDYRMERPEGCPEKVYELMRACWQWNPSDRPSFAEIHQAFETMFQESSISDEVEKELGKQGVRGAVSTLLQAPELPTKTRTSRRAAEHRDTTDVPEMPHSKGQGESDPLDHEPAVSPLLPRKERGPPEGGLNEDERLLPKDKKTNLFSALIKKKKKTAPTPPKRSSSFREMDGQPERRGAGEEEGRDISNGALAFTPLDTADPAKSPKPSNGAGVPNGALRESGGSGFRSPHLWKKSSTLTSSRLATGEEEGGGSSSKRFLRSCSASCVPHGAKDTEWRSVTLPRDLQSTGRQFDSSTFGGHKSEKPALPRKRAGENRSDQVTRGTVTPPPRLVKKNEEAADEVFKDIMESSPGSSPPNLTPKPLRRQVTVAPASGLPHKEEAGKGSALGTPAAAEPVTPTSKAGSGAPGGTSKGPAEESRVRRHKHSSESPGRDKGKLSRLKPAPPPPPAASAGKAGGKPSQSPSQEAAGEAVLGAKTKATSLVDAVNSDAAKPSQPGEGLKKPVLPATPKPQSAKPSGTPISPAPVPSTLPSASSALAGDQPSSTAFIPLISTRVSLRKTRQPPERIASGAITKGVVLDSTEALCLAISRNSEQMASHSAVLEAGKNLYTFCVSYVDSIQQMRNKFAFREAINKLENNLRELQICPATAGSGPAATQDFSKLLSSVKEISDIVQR

[6] = biological target: T2, Glycine--tRNA ligase (Homo sapiens, UniProt P41250)
T2 sequence (P41250 whole entry): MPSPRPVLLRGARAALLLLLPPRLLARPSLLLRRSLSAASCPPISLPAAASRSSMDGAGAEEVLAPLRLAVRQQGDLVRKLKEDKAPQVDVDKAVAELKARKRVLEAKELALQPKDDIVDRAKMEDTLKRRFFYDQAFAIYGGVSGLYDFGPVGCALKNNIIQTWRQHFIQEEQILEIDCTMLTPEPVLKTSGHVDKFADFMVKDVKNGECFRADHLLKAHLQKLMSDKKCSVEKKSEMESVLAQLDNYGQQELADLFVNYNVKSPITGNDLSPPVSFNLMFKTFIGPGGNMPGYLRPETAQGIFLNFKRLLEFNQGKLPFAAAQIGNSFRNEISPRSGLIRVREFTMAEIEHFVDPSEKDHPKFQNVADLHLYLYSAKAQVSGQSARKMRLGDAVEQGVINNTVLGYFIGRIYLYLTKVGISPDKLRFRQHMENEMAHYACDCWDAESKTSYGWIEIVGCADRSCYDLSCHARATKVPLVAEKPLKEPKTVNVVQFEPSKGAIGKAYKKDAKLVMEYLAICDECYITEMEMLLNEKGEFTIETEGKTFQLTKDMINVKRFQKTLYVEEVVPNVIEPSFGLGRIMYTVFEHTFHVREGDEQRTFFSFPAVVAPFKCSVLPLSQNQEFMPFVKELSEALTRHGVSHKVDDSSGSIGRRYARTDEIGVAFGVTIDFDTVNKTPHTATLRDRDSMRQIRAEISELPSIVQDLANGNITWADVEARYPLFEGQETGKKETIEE

[7] = biological target: T3, Serine/threonine-protein kinase Nek1 (Homo sapiens, UniProt Q96PY6)
T3 sequence (Q96PY6 whole entry): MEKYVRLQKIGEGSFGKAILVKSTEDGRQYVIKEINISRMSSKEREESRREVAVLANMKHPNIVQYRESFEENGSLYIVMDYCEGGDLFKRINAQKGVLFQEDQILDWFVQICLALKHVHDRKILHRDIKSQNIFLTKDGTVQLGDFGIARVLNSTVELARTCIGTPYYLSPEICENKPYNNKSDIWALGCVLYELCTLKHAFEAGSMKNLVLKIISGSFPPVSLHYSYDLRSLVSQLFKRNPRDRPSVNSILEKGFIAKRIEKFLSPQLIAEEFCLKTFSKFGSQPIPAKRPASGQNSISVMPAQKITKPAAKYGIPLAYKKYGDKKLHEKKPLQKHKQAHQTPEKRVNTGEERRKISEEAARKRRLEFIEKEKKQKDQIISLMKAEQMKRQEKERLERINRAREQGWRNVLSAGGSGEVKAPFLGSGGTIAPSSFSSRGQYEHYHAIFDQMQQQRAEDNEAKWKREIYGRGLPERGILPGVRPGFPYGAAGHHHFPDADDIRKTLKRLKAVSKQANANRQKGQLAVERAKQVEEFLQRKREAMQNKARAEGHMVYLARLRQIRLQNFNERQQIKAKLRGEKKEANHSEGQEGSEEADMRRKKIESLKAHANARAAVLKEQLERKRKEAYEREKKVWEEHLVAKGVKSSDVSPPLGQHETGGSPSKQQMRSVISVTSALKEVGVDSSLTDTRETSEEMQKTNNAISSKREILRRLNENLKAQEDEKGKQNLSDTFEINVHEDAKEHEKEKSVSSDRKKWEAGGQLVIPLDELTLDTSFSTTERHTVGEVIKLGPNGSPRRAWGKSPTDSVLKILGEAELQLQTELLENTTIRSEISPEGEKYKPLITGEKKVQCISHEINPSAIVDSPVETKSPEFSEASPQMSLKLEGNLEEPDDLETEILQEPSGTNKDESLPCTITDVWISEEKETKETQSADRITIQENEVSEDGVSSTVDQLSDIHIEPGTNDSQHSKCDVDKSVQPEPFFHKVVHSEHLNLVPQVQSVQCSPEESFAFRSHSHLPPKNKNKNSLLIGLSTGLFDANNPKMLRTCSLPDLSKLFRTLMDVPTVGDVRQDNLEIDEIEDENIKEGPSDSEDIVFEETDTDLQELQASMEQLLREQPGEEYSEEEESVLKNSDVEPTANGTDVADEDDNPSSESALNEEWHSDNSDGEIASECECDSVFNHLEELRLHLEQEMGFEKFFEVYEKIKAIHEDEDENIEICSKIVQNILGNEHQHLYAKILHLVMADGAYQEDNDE

[8] = biological target: Wee1-like protein kinase (Homo sapiens, UniProt P30291)
Sequence of Wee1-like protein kinase (P30291 whole entry): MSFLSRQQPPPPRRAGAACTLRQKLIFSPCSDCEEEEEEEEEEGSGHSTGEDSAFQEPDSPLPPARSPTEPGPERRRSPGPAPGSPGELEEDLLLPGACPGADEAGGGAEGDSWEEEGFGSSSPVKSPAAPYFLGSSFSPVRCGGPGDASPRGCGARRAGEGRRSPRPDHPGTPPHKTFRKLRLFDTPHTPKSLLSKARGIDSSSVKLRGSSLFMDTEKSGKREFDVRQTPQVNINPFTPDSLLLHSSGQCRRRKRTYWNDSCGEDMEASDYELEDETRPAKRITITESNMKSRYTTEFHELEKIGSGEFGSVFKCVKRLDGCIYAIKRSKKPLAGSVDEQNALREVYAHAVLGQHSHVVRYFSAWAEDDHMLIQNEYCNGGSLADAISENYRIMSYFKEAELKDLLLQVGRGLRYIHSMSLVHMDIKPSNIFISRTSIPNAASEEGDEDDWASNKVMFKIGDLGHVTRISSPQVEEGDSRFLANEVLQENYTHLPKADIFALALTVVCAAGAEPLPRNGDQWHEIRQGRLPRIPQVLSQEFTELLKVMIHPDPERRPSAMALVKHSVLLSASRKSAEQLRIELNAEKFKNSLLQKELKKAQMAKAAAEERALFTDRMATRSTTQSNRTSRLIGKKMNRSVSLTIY
Further: in the data inactive means no Kd found up to 30 µM.

Row | Kd [1] | Kd [2] | Kd [3] | Kd [4] | Kd [5] | Kd [6] | Kd [7] | Kd [8] | Structure (SMILES)
1 | > 30 µM (inactive) | > 30 µM (inactive) | > 30 µM (inactive) | > 30 µM (inactive) | > 30 µM (inactive) | > 30 µM (inactive) | > 30 µM (inactive) | > 30 µM (inactive) | Cn1cc(-c2ccc(F)c(C(F)(F)F)c2)nc1C1CCN(c2ncnc3[nH]ncc23)CC1 [LY-2584702]
2 | > 30 µM (inactive) | > 30 µM (inactive) | > 30 µM (inactive) | > 30 µM (inactive) | > 30 µM (inactive) | > 30 µM (inactive) | > 30 µM (inactive) | > 30 µM (inactive) | CNC(=O)c1ccc(C)c(-n2c(C)cc(OCc3ccc(F)cc3F)c(Br)c2=O)c1 [PH-797804]
3 | > 30 µM (inactive) | > 30 µM (inactive) | > 30 µM (inactive) | > 30 µM (inactive) | > 30 µM (inactive) | > 30 µM (inactive) | > 30 µM (inactive) | > 30 µM (inactive) | COc1ccc(-c2ccc3c(N4CCOC[C@@H]4C)nc(N4CCOC[C@@H]4C)nc3n2)cc1CO [AZD-8055]
4 | 2.27 µM (active) | > 30 µM (inactive) | > 30 µM (inactive) | > 30 µM (inactive) | 0.062 µM (active) | > 30 µM (inactive) | > 30 µM (inactive) | > 30 µM (inactive) | O=C(O)[C@]1(Cc2cccc(Nc3nccs3)n2)CC[C@@H](Oc2cccc(Cl)c2F)CC1 [MK-5108]

Second part, the compound before the results:

Row | Structure (SMILES) | Kd [1] | Kd [2] | Kd [3] | Kd [4] | Kd [5] | Kd [6] | Kd [7] | Kd [8]
5 | Cn1ncc(Cl)c1-c1cc(C(=O)N[C@H](CN)Cc2cccc(F)c2)sc1Cl [AFURESERTIB] | > 30 µM (inactive) | > 30 µM (inactive) | > 30 µM (inactive) | > 30 µM (inactive) | > 30 µM (inactive) | > 30 µM (inactive) | > 30 µM (inactive) | > 30 µM (inactive)
6 | Cc1cc(-c2cc(O)ccc2Cl)cc2nnc(Nc3ccc(OCCN4CCCC4)cc3)nc12 | > 30 µM (inactive) | > 30 µM (inactive) | > 30 µM (inactive) | > 30 µM (inactive) | 0.002 µM (active) | > 30 µM (inactive) | > 30 µM (inactive) | > 30 µM (inactive)
7 | O=C(c1ccc(F)c(F)c1Nc1ccc(I)cc1F)N1CC(O)([C@@H]2CCCCN2)C1 [COBIMETINIB] | > 30 µM (inactive) | > 30 µM (inactive) | > 30 µM (inactive) | > 30 µM (inactive) | > 30 µM (inactive) | > 30 µM (inactive) | > 30 µM (inactive) | > 30 µM (inactive)
8 | CC[C@@H]1C(=O)N(C)c2cnc(Nc3ccc(C(=O)N[C@H]4CC[C@H](N5CCN(CC6CC6)CC5)CC4)cc3OC)nc2N1C(C)C [VOLASERTIB] | > 30 µM (inactive) | > 30 µM (inactive) | > 30 µM (inactive) | > 30 µM (inactive) | > 30 µM (inactive) | > 30 µM (inactive) | > 30 µM (inactive) | > 30 µM (inactive)
9 | C[C@@H]1CN(Cc2ccc(F)cc2)[C@@H](C)CN1C(=O)c1cc2c(C(=O)C(=O)N(C)C)cn(C)c2cc1Cl [TALMAPIMOD] | > 30 µM (inactive) | > 30 µM (inactive) | > 30 µM (inactive) | > 30 µM (inactive) | > 30 µM (inactive) | > 30 µM (inactive) | > 30 µM (inactive) | > 30 µM (inactive)
10 | CO[C@H]1C[C@@H]2CC[C@@H](C)[C@@](O)(O2)C(=O)C(=O)N2CCCC[C@H]2C(=O)O[C@H]([C@H](C)C[C@@H]2CC[C@@H](OCCO)[C@H](OC)C2)CC(=O)[C@H](C)/C=C(\C)[C@@H](O)[C@@H](OC)C(=O)[C@H](C)C[C@H](C)/C=C/C=C/C=C/1C [EVEROLIMUS] | > 30 µM (inactive) | > 30 µM (inactive) | > 30 µM (inactive) | > 30 µM (inactive) | > 30 µM (inactive) | > 30 µM (inactive) | > 30 µM (inactive) | > 30 µM (inactive)
11 | CC(C)Nc1cc(-c2c[nH]c(C(=O)N[C@H](CO)c3cccc(Cl)c3)c2)c(Cl)cn1 [ULIXERTINIB] | > 30 µM (inactive) | > 30 µM (inactive) | > 30 µM (inactive) | > 30 µM (inactive) | > 30 µM (inactive) | > 30 µM (inactive) | > 30 µM (inactive) | > 30 µM (inactive)
12 | COC(=O)[C@@]1(O)C[C@H]2O[C@]1(C)n1c3ccccc3c3c4c(c5c6ccccc6n2c5c31)C(=O)NC4 [K-252A] | 0.043 µM (active) | > 30 µM (inactive) | > 30 µM (inactive) | > 30 µM (inactive) | > 30 µM (inactive) | > 30 µM (inactive) | > 30 µM (inactive) | > 30 µM (inactive)
13 | Cc1ccc(NC(=O)c2ccc(CN3CC[C@H](N(C)C)C3)c(C(F)(F)F)c2)cc1Nc1nccc(-c2cncnc2)n1 [BAFETINIB] | > 30 µM (inactive) | > 30 µM (inactive) | > 30 µM (inactive) | > 30 µM (inactive) | 0.026 µM (active) | > 30 µM (inactive) | > 30 µM (inactive) | > 30 µM (inactive)
14 | Cc1ccc(-n2nc(C(C)(C)C)cc2NC(=O)NCc2cc(F)ccc2Oc2ccc3c(cnn3CCO)c2)cc1 [PEXMETINIB] | > 30 µM (inactive) | > 30 µM (inactive) | > 30 µM (inactive) | > 30 µM (inactive) | 0.211 µM (active) | > 30 µM (inactive) | > 30 µM (inactive) | > 30 µM (inactive)
